The text below walks through data of paper PMC7587356, “High-Throughput Screening for Inhibitors of the SARS-CoV-2 Protease Using a FRET-Biosensor” (Molecules, 2020).

Structures are written as SMILES. Where a name gives a salt, the structure may show the parent alone. Read-outs that look alike come from different tables or passages of the source.

This experiment addresses SARS-CoV-2 3CLpro (Severe acute respiratory syndrome coronavirus 2, UniProt P0DTD1). The experiment in a line: biochemical. Format: biochemical. Further details: Replicate_1 / Replicate_2 / mean / mean (LOPAC_screen_w_protease): unit not given here. The note with it: for inhibition at 5 µM: 4 h.
The mark [1] stands for this setting: sheet LOPAC_screen_w_protease, LOPAC1280 primary screen at 5 µM, with protease, mean of the two replicates.
Setting [2] is: sheet LOPAC_screen_w_protease, LOPAC1280 primary screen at 5 µM, with protease, replicate 1.
Setting [3] is: sheet LOPAC_screen_w_protease, LOPAC1280 primary screen at 5 µM, with protease, replicate 2.
Where [4] appears, read: sheet LOPAC_screen_w_protease, LOPAC1280 primary screen with protease, 5 µM compound, mean of the two replicates.
[5] abbreviates: sheet LOPAC_screen_w_protease, LOPAC1280 primary screen with protease, 5 µM compound, replicate 1.
Where [6] appears, read: sheet LOPAC_screen_w_protease, LOPAC1280 primary screen with protease, 5 µM compound, replicate 2.
The mark [7] stands for this setting: sheet LOPAC_screen_w_protease, LOPAC1280 primary screen with protease, 5 µM compound, mean of the two replicates, read-out: mean.
[8] abbreviates: sheet LOPAC_screen_w_protease, LOPAC1280 primary screen with protease, 5 µM compound, replicate 1, read-out: Replicate_1.
Setting [9] is: sheet LOPAC_screen_w_protease, LOPAC1280 primary screen with protease, 5 µM compound, replicate 2, read-out: Replicate_2.
Where [10] appears, read: sheet LOPAC_screen_w_protease, primary screen with protease, 5 µM, mean of two replicates.
Setting [11] is: sheet LOPAC_screen_w_protease, primary screen with protease, 5 µM, replicate 1.
The mark [12] stands for this setting: sheet LOPAC_screen_w_protease, primary screen with protease, 5 µM, replicate 2.
The mark [13] stands for this setting: sheet LOPAC_screen_w_protease, primary screen with protease, compound at 5 µM, mean of two replicates.
The mark [14] stands for this setting: sheet LOPAC_screen_w_protease, primary screen with protease, compound at 5 µM, replicate 1.
[15] abbreviates: sheet LOPAC_screen_w_protease, primary screen with protease, compound at 5 µM, replicate 2.

Take `O=S(=O)(c1cccc2cnccc12)N1CCNCC1` [HA-100]: the mean under setting [1] stood at 0.7375. In addition, under setting [2], the Replicate_1 turned out to be 1.4906. Under setting [3], this compound came in with a Replicate_2 of -0.01568.

As to `CN1C2CCC1CC(NC(=O)c1nn(C)c3ccccc13)C2.O=C(O)/C=C\C(=O)O` (stereo not drawn) [LY-278,584 maleate], the mean under setting [4] was 4.776. The compound also yielded a Replicate_1 under setting [5] of 3.942. Besides, the Replicate_2 under setting [6] was found to be 5.61.

On to `COCCOC(=O)C1=C(C)NC(C)=C(C(=O)OC(C)C)C1c1cccc([N+](=O)[O-])c1` (stereo not drawn) [Nimodipine], for which the inhibition at 5 µM runs as follows: under setting [7], 4.81%; under setting [8], 3.58%; under setting [9], 6.04%.

Under setting [10], `CC(C)(Sc1ccc(CCN(CCCCC2CCCCC2)C(=O)NC2CCCCC2)cc1)C(=O)O` [GW7647] had a mean of -0.2447. The same compound displayed a Replicate_1 under setting [11] of -0.1471. For the same compound, under setting [12], the Replicate_2 is on record as -0.3423.

Compound `Cl.Cn1ccc2cc(NC(=O)Nc3cccnc3)ccc21` [SB 200646 hydrochloride] gave a mean under setting [13] of 2.882. Under setting [14], this compound displayed a Replicate_1 of 2.958. The same compound came in with a Replicate_2 under setting [15] of 2.805.

As for `c1ccc2c(CC3=NCCN3)cccc2c1` [Naphazoline hydrochloride], the inhibition at 5 µM is, setting by setting: under setting [7], 4.49%; under setting [8], 4.4%; under setting [9], 4.59%.

Consider `N[C@@H](Cc1c[nH]c2ccccc12)C(=O)O` [L-Tryptophan], for which the inhibition at 5 µM was 0.58% (sheet LOPAC_screen_w_protease, LOPAC1280 primary screen at 5 µM, with protease, mean of the two replicates, read-out: mean); 2.12% (sheet LOPAC_screen_w_protease, LOPAC1280 primary screen at 5 µM, with protease, replicate 1, read-out: Replicate_1); -0.955% (sheet LOPAC_screen_w_protease, LOPAC1280 primary screen at 5 µM, with protease, replicate 2, read-out: Replicate_2).

Under setting [13], `CCN1CCc2nc(N)oc2CC1.Cl.Cl` [B-HT 933 dihydrochloride] displayed a mean of 2.82. Under setting [14], this compound came in with a Replicate_1 of 2.163. The compound further yielded a Replicate_2 under setting [15] of 3.476.

In the case of `CNCCC(Oc1ccccc1OC)c1ccccc1` (stereo not drawn) [Nisoxetine hydrochloride], the inhibition at 5 µM reads like this: under setting [7], 4.4%; under setting [8], 3.53%; under setting [9], 5.27%.

Take `O=C(CCc1ccc(O)cc1)c1c(O)cc(O)cc1O` [Phloretin]: the inhibition at 5 µM turned out to be 8.32% (read-out: Replicate_1 (LOPAC screen with protease)), 5.55% (read-out: Replicate_2 (LOPAC screen with protease)) and 6.94% (read-out: mean (LOPAC screen with protease)).

The compound `CC[C@@H]1C(=O)OC[C@@H]1Cc1cncn1C.Cl` [(+)-Pilocarpine hydrochloride] registered a mean under setting [1] of 0.6668. The Replicate_1 under setting [2] was found to be 2.011. Moreover, the Replicate_2 under setting [3] is listed as -0.6778.

As to `C[C@](N)(Cc1ccc(O)c(O)c1)C(=O)O` [L-alpha-Methyl DOPA], where the note is “sheet LOPAC_screen_w_protease, primary screen at 5 µM, mean of two replicates”, the “mean (LOPAC screen with protease)” value was 7.163. The “Replicate_1 (LOPAC screen with protease)” value (sheet LOPAC_screen_w_protease, primary screen at 5 µM, replicate 1) was determined as 6.315. Besides, the “Replicate_2 (LOPAC screen with protease)” value (sheet LOPAC_screen_w_protease, primary screen at 5 µM, replicate 2) was 8.01.

`CNc1ncnc2c1ncn2[C@@H]1O[C@H](CO)[C@@H](O)[C@H]1O` [N6-Methyladenosine] came in with a mean under setting [13] of 2.9788. Under setting [14], this compound yielded a Replicate_1 of 2.994. Further, under setting [15], the Replicate_2 is listed as 2.964.

For the compound `CC(COc1ccc(/C=C/c2ccccc2)cc1)[N+](C)(C)C.[I-]` (stereo not drawn), the mean under setting [4] is recorded as 5.814. The same compound showed a Replicate_1 under setting [5] of 7.703. Besides, under setting [6], the Replicate_2 is given as 3.926.

In turn, `CN1CCN(c2ccc3ccccc3n2)CC1.O=C(O)/C=C\C(=O)O.O=C(O)/C=C\C(=O)O` [Quipazine, N-methyl-, dimaleate] displayed a mean under setting [1] of 0.6078. Besides, the Replicate_1 under setting [2] was 1.027. This compound also came in with a Replicate_2 under setting [3] of 0.1891.

For `N=C(NCCC[C@H](N)C(=O)O)N[N+](=O)[O-]` [NG-Nitro-L-arginine], the inhibition at 5 µM reads like this: (sheet LOPAC_screen_w_protease, primary screen of LOPAC1280 at 5 µM with protease, mean of the two replicates, read-out: mean) 3.68%; (sheet LOPAC_screen_w_protease, primary screen of LOPAC1280 at 5 µM with protease, replicate 1, read-out: Replicate_1) 2.33%; (sheet LOPAC_screen_w_protease, primary screen of LOPAC1280 at 5 µM with protease, replicate 2, read-out: Replicate_2) 5.04%.

Compound `O=C1OC(=O)[C@H]2[C@@H]1[C@@H]1CC[C@H]2O1` [Norcantharidin] gave a mean under setting [13] of 2.796. Besides, the Replicate_1 under setting [14] turned out to be 1.684. This compound also showed a Replicate_2 under setting [15] of 3.909.

`Cc1c(C)c2c(c(C)c1O)CCC(C)(CN1CCN(c3cc(N4CCCC4)nc(N4CCCC4)n3)CC1)O2.Cl.Cl` (stereo not drawn) [U-83836 dihydrochloride] had a mean under setting [10] of 0.07046. Moreover, the Replicate_1 under setting [11] is -0.1864. Also, the Replicate_2 under setting [12] was found to be 0.3273.
